Here are results for one compound from paper PMC12069643, “Structural insights into the selective recognition of RF-amide peptides by neuropeptide FF receptor 2” (EMBO Reports, 2025).

What all share (assay type): cell-based
The target in experiment [1] is T1, NPFFR2 mutants (Homo sapiens, UniProt Q9Y5X5, F425A).
T1 construct: expressed in transfected cells; host or cells: HEK293T (pcDNA3.1 NPFFR2 mutants)
Put plainly: GloSensor forskolin-stimulated cAMP assay, NPFFR2 mutants. To be noted: NPFFR2 F3237.43A, HEK293T, three independent experiments. An excerpt:
(§1) Figure 2 Interaction of hNPSF with NPFFR2. (A) Residues participating in the interactions between hNPSF and NPFFR2 in the transmembrane (TM) binding pocket are shown as sticks. Dashed lines indicate polar interactions and hydrogen bonds between residues. Zoomed-in views highlighting interactions of the C-terminal segment (residues −1 to −4, PQRF), middle segment (residues −5 to −8, FLFQ), and the N-terminal segment (residues −9 to −11, SQA) of hNPSF are enclosed in red, blue, and yellow boxes, respectively. (B) NPFFR2 residues interacting with hNPSF were mutated to alanine, and the impact of each mutation on the EC50 value (ΔpEC50) was investigated using a forskolin-stimulated cAMP assay, after confirming surface expression of each mutant by an ELISA-based surface expression assay (Appendix Fig. S5). Three independent experiments (with technical triplicates) were conducted for each mutant. The bar graphs represent the mean of ΔpEC50 values from each experiment, with error bars indicating SEM. Statistical analyses were performed using ordinary one-way ANOVA followed by Dunnett’s test, comparing to the wild-type response. ns (not significant, P > 0.05); *P < 0.05; **P < 0.01; ***P < 0.001. Source data are available online for this figure.
(§2) HEK293T cells were seeded at a density of 6 × 10^5 cells per well in a six-well cell culture plate (SPL) and co-transfected with expression plasmids encoding GloSensor™ and each NPFFR construct, using 1 µg to 4 µg of DNA per well according to the Lipofectamine™ 2000 Transfection Reagent (Invitrogen) protocol. After 48 h of incubation under standard conditions (37 °C, 5% CO2), the cells were detached using Accutase solution (Sigma-Aldrich) and washed with PBS. The cells were then pelleted by centrifugation, resuspended in CO2-independent medium (Gibco) supplemented with Firefly D-Luciferin (0.5 mg/ml, NanoLight), and distributed into a 96-well white plate (SPL). After a 2-hour incubation, serially diluted ligands and 0.5 μM forskolin were added to each well to detect ligand-induced signaling. Luminescence signals were measured using a Mithras LB940 instrument (Berthold) with a measurement time of 1 s per well.
(§3) Data from the GloSensor^TM cAMP signaling assays were analyzed using GraphPad Prism with a three-parameter logistic model to fit concentration-response curves for both wild-type (WT) and mutant receptors. Mutant expression levels and DNA amounts were adjusted to match WT conditions. ΔpEC50 values were calculated by subtracting the log EC50 of the WT receptor from that of each mutant. Results are presented as mean ± SEM from three independent biological replicates, each performed in duplicate or more. Error bars represent the SEM. Statistical significance was assessed using one-way ANOVA, followed by Dunnett’s tests comparisons to the WT receptor. Significance levels were reported as follows: ns (not significant, P > 0.05); *P < 0.05; **P < 0.01; ***P < 0.001.
(§4) Appendix Figure S5. GloSensorTM cAMP assays of mutants and wild-type NPFFR2.
(§5) The dose-response of cAMP assay data for each mutant (red) presented in Fig. 2B are compared against the wild-type NPFFR2 (blue). Each experiment was conducted after adjusting the mutant's expression level to that of the wild-type NPFFR2 (Appendix Fig. S3), and pcDNA3.1 was used to match the total amount of DNA transfected. Data points represent mean values from three independent experiments (each with technical triplicate), with error bars indicating SEM. Raw data were normalized to the vehicle -treated (0%) and 0.5 μM forskolin-treated (100%) responses.
(§6) (% of forskolin stimulation) […]
In general terms: cAMP levels reflect the balance of adenylyl cyclase and phosphodiesterase activity.

Experiment [2] addresses T2, NPFFR2 mutants (Homo sapiens, UniProt Q9Y5X5, Y417A).
T2 construct: expressed in transfected cells; host or cells: HEK293T (pcDNA3.1 NPFFR2 mutants)
The description is as above. The note with it: NPFFR2 Y3157.35A, HEK293T, three independent experiments.
Excerpt: as §1, §2, §3, §4, §5, §6

Experiment [3] deals with T3, NPFFR2 mutants (Homo sapiens, UniProt Q9Y5X5, T322A).
T3 construct: expressed in transfected cells; host or cells: HEK293T (pcDNA3.1 NPFFR2 mutants)
The experiment is described as above. To be noted: NPFFR2 T2205.39A, HEK293T, three independent experiments.
Excerpt: as §1, §2, §3, §4, §5, §6

Experiment [4] has as its target T4, NPFFR2 mutants (Homo sapiens, UniProt Q9Y5X5, Y321A).
T4 construct: expressed in transfected cells; host or cells: HEK293T (pcDNA3.1 NPFFR2 mutants)
Described as above. To be noted: NPFFR2 Y2195.38A, HEK293T, three independent experiments.
Excerpt: as §1, §2, §3, §4, §5, §6

Experiment [5] deals with T5, NPFFR2 mutants (Homo sapiens, UniProt Q9Y5X5, W393A).
T5 construct: expressed in transfected cells; host or cells: HEK293T (pcDNA3.1 NPFFR2 mutants)
The experiment is described as above. The note with it: NPFFR2 W2916.52A, HEK293T, three independent experiments.
Excerpt: as §1, §2, §3, §4, §5, §6

Experiment [6] addresses T6, NPFFR2 mutants (Homo sapiens, UniProt Q9Y5X5, N413A).
T6 construct: expressed in transfected cells; host or cells: HEK293T (pcDNA3.1 NPFFR2 mutants)
Described as above. To be noted: NPFFR2 N3117.31A, HEK293T, three independent experiments.
Excerpt: as §1, §2, §3, §4, §5, §6

In a further experiment the target is T7, human NPFFR1 (Homo sapiens, UniProt Q9GZQ6).
T7 construct: expressed in transfected cells; host or cells: HEK293T (pcDNA3.1 NPFFR1)
Put plainly: GloSensor forskolin-stimulated cAMP assay, NPFFR1 wild-type. To be noted: NPFFR1 wild-type, HEK293T, 0.5 μM forskolin, three independent experiments. How it is done: Figure 4 RF-amide ligand selectivity of NPFFR2 and NPFFR1. […] Key residues at the fifth and sixth positions from the C-terminus, are highlighted in bold. […] (B) The concentration-dependent response of various agonists on NPFFR1 was measured using a forskolin-stimulated cAMP assay. Data points represent the mean values from three independent experiments (each with technical triplicate), with error bars indicating SEM. Raw data were normalized to the vehicle-treated (0%) and 0.5 μM forskolin-treated (100%) responses. (C) Structural comparison between the binding modes of hNPSF to NPFFR2 and GnIH to NPFFR1. An AlphaFold2 prediction model of the GnIH–NPFFR1 complex was generated using the hNPSF–NPFFR2 complex structure as a template. The hydrophobicity of NPFFRs is shown with surface representation, where purple indicates hydrophilic regions and bronze indicates hydrophobic regions. […] (D) The cAMP response to the ligands hNPSF and GnIH was measured for both wild-type NPFFR1 and a mutant form of NPFFR1 using a forskolin-stimulated cAMP assay. […] Symbols represent mean values from three independent experiments, each conducted in technical triplicates, with error bars indicating SEM. Responses were normalized to vehicle-treated controls (0%) and 0.5 μM forskolin-treated controls (100%). Source data are available online for this figure.
as §2, §3

SMILES strings stand for the structures.

T5 sequence (Q9Y5X5 103-522 W393A): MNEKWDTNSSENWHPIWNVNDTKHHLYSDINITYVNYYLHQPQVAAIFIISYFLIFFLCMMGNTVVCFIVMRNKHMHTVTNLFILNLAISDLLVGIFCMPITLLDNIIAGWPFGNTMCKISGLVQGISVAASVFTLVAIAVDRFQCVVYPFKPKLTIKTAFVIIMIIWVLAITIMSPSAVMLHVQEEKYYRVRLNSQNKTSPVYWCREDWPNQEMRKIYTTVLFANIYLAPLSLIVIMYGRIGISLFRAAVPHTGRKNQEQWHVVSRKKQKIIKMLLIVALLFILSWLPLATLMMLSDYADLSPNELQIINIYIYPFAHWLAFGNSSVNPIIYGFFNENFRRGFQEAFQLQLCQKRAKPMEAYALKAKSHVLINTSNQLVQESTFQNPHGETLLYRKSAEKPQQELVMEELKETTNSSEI
T4 sequence (Q9Y5X5 103-522 Y321A): as the sequence (Q9Y5X5 103-522 W393A) above, with Y219A, A291W counted along it
T1 sequence (Q9Y5X5 103-522 F425A): as the sequence (Q9Y5X5 103-522 W393A) above, with A291W, F323A counted along it
T6 sequence (Q9Y5X5 103-522 N413A): as the sequence (Q9Y5X5 103-522 W393A) above, with A291W, N311A counted along it
T3 sequence (Q9Y5X5 103-522 T322A): as the sequence (Q9Y5X5 103-522 W393A) above, with T220A, A291W counted along it
T2 sequence (Q9Y5X5 103-522 Y417A): as the sequence (Q9Y5X5 103-522 W393A) above, with A291W, Y315A counted along it
T7 sequence (Q9GZQ6 whole entry): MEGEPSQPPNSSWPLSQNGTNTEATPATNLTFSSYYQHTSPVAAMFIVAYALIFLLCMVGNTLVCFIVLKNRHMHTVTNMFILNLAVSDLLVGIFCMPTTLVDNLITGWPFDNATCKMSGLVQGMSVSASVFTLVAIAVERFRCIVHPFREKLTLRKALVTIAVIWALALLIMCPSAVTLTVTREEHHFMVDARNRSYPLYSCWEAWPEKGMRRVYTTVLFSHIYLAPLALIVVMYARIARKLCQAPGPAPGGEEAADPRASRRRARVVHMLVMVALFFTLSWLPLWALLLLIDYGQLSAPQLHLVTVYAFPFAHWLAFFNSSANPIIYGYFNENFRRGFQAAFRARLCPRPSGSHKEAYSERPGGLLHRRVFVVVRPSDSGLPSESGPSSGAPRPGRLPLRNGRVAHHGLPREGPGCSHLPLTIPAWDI

The term Emax denotes the greatest response seen or fitted, relative to the assay's reference. On to `CC(C)C[C@H](NC(=O)[C@H](Cc1ccccc1)NC(=O)[C@H](C)NC(=O)[C@H](CCC(N)=O)NC(=O)[C@@H](N)CO)C(=O)N[C@@H](Cc1ccccc1)C(=O)N[C@@H](CCC(N)=O)C(=O)N1CCC[C@H]1C(=O)N[C@@H](CCC(N)=O)C(=O)N[C@@H](CCCNC(=N)N)C(=O)N[C@@H](Cc1ccccc1)C(N)=O` [hNPSF], for which the Emax on NPFFR2 mutants [1] (HEK-293T) is 81 ± 3%; at NPFFR2 mutants [2] (HEK-293T), 77 ± 2%; at NPFFR2 mutants [3] (HEK-293T), 70 ± 5%; at NPFFR2 mutants [4] (HEK-293T) it was 72 ± 3%; on NPFFR2 mutants [5] (HEK-293T), 80 ± 4%; at NPFFR2 mutants [6] (HEK-293T), 69 ± 8%. Also, the Emax on human NPFFR1 (HEK-293T, read-out: Emax ± SEM) was found to be 83 ± 1%. For the same compound, the EC50 on NPFFR2 mutants [1] was 398 nM; on NPFFR2 mutants [2], 126 nM; on NPFFR2 mutants [3] it was 631 nM; at NPFFR2 mutants [4], 100 nM; at NPFFR2 mutants [5] it was 79.4 nM; on NPFFR2 mutants [6], 1260 nM. Besides, the EC50 on human NPFFR1 (read-out: pEC50 ± SEM (converted)) is 79.4 nM.
